Measured values reported in ChEMBL document CHEMBL4350978, “Phytochemical and pharmacological attributes of piperine: A bioactive ingredient of black pepper” (2019).
In brackets after ≈: the same amount, converted by molar mass. One block for each compound: values may come before it.

How the values were obtained:
Assay type in all cases: functional
[1] = test system: Escherichia coli; assay: Antibacterial activity against Escherichia coli assessed as diameter of zone of inhibition at 15 ug/disc by disc diffusion method; conditions: read-out: DIZ
[2] = test system: Staphylococcus aureus; assay: Antibacterial activity against Staphylococcus aureus assessed as diameter of zone of inhibition at 15 ug/disc by disc diffusion method; conditions: read-out: DIZ
[3] = test system: Klebsiella pneumoniae; assay: Antibacterial activity against Klebsiella pneumoniae assessed as diameter of zone of inhibition at 15 ug/disc by disc diffusion method; conditions: read-out: DIZ
[4] = test system: Proteus vulgaris; assay: Antibacterial activity against Proteus vulgaris assessed as diameter of zone of inhibition at 15 ug/disc by disc diffusion method; conditions: read-out: DIZ
[5] = test system: Pseudomonas aeruginosa; assay: Antibacterial activity against Pseudomonas aeruginosa assessed as diameter of zone of inhibition at 15 ug/disc by disc diffusion method; conditions: read-out: DIZ
[6] = test system: Escherichia coli; assay: Antibacterial activity against Escherichia coli assessed as diameter of zone of inhibition at […] by disc diffusion method
[7] = test system: Staphylococcus aureus; assay: Antibacterial activity against Staphylococcus aureus assessed as diameter of zone of inhibition at […] by disc diffusion method
[8] = test system: Klebsiella pneumoniae; assay: Antibacterial activity against Klebsiella pneumoniae assessed as diameter of zone of inhibition at […] by disc diffusion method
[9] = test system: Proteus vulgaris; assay: Antibacterial activity against Proteus vulgaris assessed as diameter of zone of inhibition at […] by disc diffusion method
[10] = test system: Pseudomonas aeruginosa; assay: Antibacterial activity against Pseudomonas aeruginosa assessed as diameter of zone of inhibition at […] by disc diffusion method
[11] = test system: Candida albicans; assay: Antifungal activity against Candida albicans assessed as diameter of zone of inhibition at […] by disc diffusion method
[12] = test system: Escherichia coli; assay: Antibacterial activity against Escherichia coli by serial dilution method
[13] = test system: Staphylococcus aureus; assay: Antibacterial activity against Staphylococcus aureus by serial dilution method
[14] = test system: Klebsiella pneumoniae; assay: Antibacterial activity against Klebsiella pneumoniae by serial dilution method
[15] = test system: Proteus vulgaris; assay: Antibacterial activity against Proteus vulgaris by serial dilution method
[16] = test system: Candida albicans; assay: Antifungal activity against Candida albicans by serial dilution method
[17] = test system: Escherichia coli; assay: Antibacterial activity against Escherichia coli assessed as diameter of zone of inhibition at 10 ug/disc by disc diffusion method; conditions: read-out: DIZ
[18] = test system: Staphylococcus aureus; assay: Antibacterial activity against Staphylococcus aureus assessed as diameter of zone of inhibition at 10 ug/disc by disc diffusion method; conditions: read-out: DIZ
[19] = test system: Klebsiella pneumoniae; assay: Antibacterial activity against Klebsiella pneumoniae assessed as diameter of zone of inhibition at 10 ug/disc by disc diffusion method; conditions: read-out: DIZ
[20] = test system: Proteus vulgaris; assay: Antibacterial activity against Proteus vulgaris assessed as diameter of zone of inhibition at 10 ug/disc by disc diffusion method; conditions: read-out: DIZ
[21] = test system: Pseudomonas aeruginosa; assay: Antibacterial activity against Pseudomonas aeruginosa assessed as diameter of zone of inhibition at 10 ug/disc by disc diffusion method; conditions: read-out: DIZ

SMILES: CC[C@H]1OC(=O)[C@H](C)[C@@H](O[C@H]2C[C@@](C)(OC)[C@@H](O)[C@H](C)O2)[C@H](C)[C@@H](O[C@@H]2O[C@H](C)C[C@H](N(C)C)[C@H]2O)[C@](C)(O)C[C@@H](C)C(=O)[C@H](C)[C@@H](O)[C@]1(C)O [ERYTHROMYCIN]
- zone of inhibition at 15 µg/disc [1]: 15 mm
- zone of inhibition at 15 µg/disc [2]: 24 mm
- zone of inhibition at 15 µg/disc [3]: 10 mm
- zone of inhibition at 15 µg/disc [4]: 6 mm
- zone of inhibition at 15 µg/disc [5]: 18 mm

- MIC [12]: 6.25 mg/mL (≈ 21.9 mM)
- MIC [13]: 50 mg/mL (≈ 175 mM)
- MIC [14]: 25 mg/mL (≈ 87.6 mM)
- MIC [15]: 12.5 mg/mL (≈ 43.8 mM)
- MIC [16]: 3.12 mg/mL (≈ 11 mM)
SMILES: O=C(/C=C/C=C/c1ccc2c(c1)OCO2)N1CCCCC1 [PIPERINE]
- diameter of the inhibition zone (DIZ) [6]: 20 mm
- diameter of the inhibition zone (DIZ) [7]: 12 mm
- diameter of the inhibition zone (DIZ) [8]: 15 mm
- diameter of the inhibition zone (DIZ) [9]: 17 mm
- diameter of the inhibition zone (DIZ) [10]: 8 mm
- diameter of the inhibition zone (DIZ) [11]: 23 mm

SMILES: CN[C@@H]1[C@H](O[C@H]2[C@H](O[C@H]3[C@H](O)[C@@H](O)[C@H](N=C(N)N)[C@@H](O)[C@@H]3N=C(N)N)O[C@@H](C)[C@]2(O)C=O)O[C@@H](CO)[C@H](O)[C@H]1O [STREPTOMYCIN]
- zone of inhibition at 10 µg/disc [17]: 13.5 mm
- zone of inhibition at 10 µg/disc [18]: 23 mm
- zone of inhibition at 10 µg/disc [19]: 20 mm
- zone of inhibition at 10 µg/disc [20]: 10 mm
- zone of inhibition at 10 µg/disc [21]: 22 mm
